According to patent US9233061B2 (AMOREPACIFIC CORPORATION, priority 2011, dated 2016):

Assay: Precipitation of caffeine at low temperature (4° C.)
Assay type: physicochemical
Conditions: 3 days in a refrigerator (4° C.)

## NC(=O)c1cccnc1 [niacinamide, Niacinamide]
Caffeine content 1-3%
  Amount of niacinamide necessary for inhibiting precipitation: 0.5-1 time based on caffeine
Caffeine content 3-5%
  Amount of niacinamide necessary for inhibiting precipitation: 1-1.5 times based on caffeine
Caffeine content 5-10%
  Amount of niacinamide necessary for inhibiting precipitation: 1-2 times based on caffeine
